From ChEMBL document CHEMBL1201862, “PubChem BioAssay data set” (2004)
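96-well plates; 48 h exposure; 5 concentrations. Endpoints by linear interpolation between flanking doses. Not reached: highest tested concentration assigned. GI50: concentration for 50% inhibition of growth.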 The source made the active and inactive calls. Cut-off read from the data, not from the text of the source: active = GI50 up to about 1.1 µM and inactive = higher.

Assays:
Test in all cases: NCI tumour cell line growth inhibition, 48 h
SNB-19 = system: SNB-19
HCT-15 = system: HCT-15
MDA-MB-231 = system: MDA-MB-231
OVCAR-3 = system: OVCAR-3
MDA-N = system: MDA-N
BT-549 = system: BT-549
786-0 = system: 786-0
U-251 = system: U-251
RXF 393 = system: RXF 393
MDA-MB-435 = system: MDA-MB-435
UACC-257 = system: UACC-257
KM12 = system: KM12
UO-31 = system: UO-31
COLO 205 = system: COLO 205
Hs-578T = system: Hs-578T
A549 = system: A549
IGROV-1 = system: IGROV-1
DU-145 = system: DU-145

SMILES	GI50 (SNB-19)	GI50 (HCT-15) [µM]	GI50 (MDA-MB-231)	GI50 (OVCAR-3)	GI50 (MDA-N)	GI50 (BT-549)	GI50 (786-0)	GI50 (U-251)	GI50 (RXF 393)	GI50 (MDA-MB-435)	GI50 (UACC-257)	GI50 (KM12)	GI50 (UO-31)	GI50 (COLO 205)	GI50 (Hs-578T)	GI50 (A549)	GI50 (IGROV-1)	GI50 (DU-145)
N#C[C@H](c1ccccn1)c1nc2ccccc2nc1Cl	> 100 µM (inactive)	> 100	> 100 µM (inactive)	> 100 µM (inactive)	> 100 µM (inactive)	> 100 µM (inactive)	> 100 µM (inactive)	> 100 µM (inactive)	> 100 µM (inactive)	> 100 µM (inactive)	> 100 µM (inactive)	36.5 µM (inactive)	> 100 µM (inactive)	> 100 µM (inactive)	> 100 µM (inactive)	> 100 µM (inactive)	> 100 µM (inactive)	–
Cc1cc(S(=O)(=O)NC2=NCc3nc4ccccc4n32)c(S)cc1Cl	32.3 µM (inactive)	24.7	23.5 µM (inactive)	19.9 µM (inactive)	26 µM (inactive)	23 µM (inactive)	21 µM (inactive)	33.5 µM (inactive)	12.9 µM (inactive)	28.8 µM (inactive)	24.2 µM (inactive)	21.2 µM (inactive)	26.4 µM (inactive)	19.4 µM (inactive)	21.4 µM (inactive)	25.8 µM (inactive)	24.8 µM (inactive)	31.2 µM (inactive)
COc1ccc(-c2c(-c3ccccc3)c(C)c3ccccn23)cc1	> 100 µM (inactive)	56.9	> 100 µM (inactive)	> 100 µM (inactive)	70.1 µM (inactive)	> 100 µM (inactive)	> 100 µM (inactive)	> 100 µM (inactive)	–	52.2 µM (inactive)	49.9 µM (inactive)	26.3 µM (inactive)	> 100 µM (inactive)	80.4 µM (inactive)	> 100 µM (inactive)	87.3 µM (inactive)	> 100 µM (inactive)	> 100 µM (inactive)
N#Cc1c(-c2ccccc2)c(CN2CCCCC2)c(=O)n2c1[nH]c1ccccc12	25.9 µM (inactive)	32.6	43.5 µM (inactive)	20.4 µM (inactive)	27.5 µM (inactive)	35 µM (inactive)	27.9 µM (inactive)	27.1 µM (inactive)	32.5 µM (inactive)	41.4 µM (inactive)	42 µM (inactive)	30.1 µM (inactive)	26.7 µM (inactive)	25.6 µM (inactive)	–	26.7 µM (inactive)	19.5 µM (inactive)	–
Cc1cc2nc3c(C(O)CO)nn(-c4ccccc4)c3nc2cc1C (stereo not drawn)	22.9 µM (inactive)	14.9	22.1 µM (inactive)	15.8 µM (inactive)	18.3 µM (inactive)	18.8 µM (inactive)	17.9 µM (inactive)	15.2 µM (inactive)	14.5 µM (inactive)	21.2 µM (inactive)	22 µM (inactive)	16.2 µM (inactive)	15.1 µM (inactive)	–	31.6 µM (inactive)	12.9 µM (inactive)	17.3 µM (inactive)	15.4 µM (inactive)
Cc1ccc(S(=O)(=O)NCCCSCCN)cc1	> 100 µM (inactive)	> 100	> 100 µM (inactive)	> 100 µM (inactive)	> 100 µM (inactive)	–	–	> 100 µM (inactive)	> 100 µM (inactive)	> 100 µM (inactive)	> 100 µM (inactive)	> 100 µM (inactive)	> 100 µM (inactive)	> 100 µM (inactive)	> 100 µM (inactive)	> 100 µM (inactive)	–	> 100 µM (inactive)
C[N+](C)(C)/C=N\c1cccc2c1CCCC2	> 100 µM (inactive)	> 100	> 100 µM (inactive)	> 100 µM (inactive)	> 100 µM (inactive)	57.1 µM (inactive)	> 100 µM (inactive)	88.3 µM (inactive)	> 100 µM (inactive)	90.8 µM (inactive)	45.1 µM (inactive)	–	> 100 µM (inactive)	43.4 µM (inactive)	> 100 µM (inactive)	72.9 µM (inactive)	75.3 µM (inactive)	> 100 µM (inactive)
COC(=O)c1ccc(NCc2cc(OC)ccc2OC)cc1	> 100 µM (inactive)	30.6	46.7 µM (inactive)	59.2 µM (inactive)	20.8 µM (inactive)	53.8 µM (inactive)	> 100 µM (inactive)	74.3 µM (inactive)	–	21.8 µM (inactive)	52.1 µM (inactive)	31.1 µM (inactive)	45.6 µM (inactive)	35.6 µM (inactive)	92 µM (inactive)	38.7 µM (inactive)	> 100 µM (inactive)	> 100 µM (inactive)
COc1ccc(C2C3CCc4ccccc4C3=NN2S(=O)(=O)c2cccc(C(=O)O)c2OC)cc1 (stereo not drawn)	25.4 µM (inactive)	0.24	10.4 µM (inactive)	5.35 µM (inactive)	2.52 µM (inactive)	33.3 µM (inactive)	11.2 µM (inactive)	7.21 µM (inactive)	13.1 µM (inactive)	1.79 µM (inactive)	–	2.48 µM (inactive)	19.4 µM (inactive)	1.84 µM (inactive)	–	10.1 µM (inactive)	1.09 µM (active)	27.7 µM (inactive)
O=C1CC2(CCC(O)(c3ccc4ccccc4c3)C(C(=O)c3ccc4ccccc4c3)C2)C(=O)c2ccccc2N1 (stereo not drawn)	> 100 µM (inactive)	> 10	> 100 µM (inactive)	> 100 µM (inactive)	–	> 100 µM (inactive)	–	> 100 µM (inactive)	> 100 µM (inactive)	> 100 µM (inactive)	> 100 µM (inactive)	–	> 100 µM (inactive)	> 100 µM (inactive)	> 100 µM (inactive)	> 100 µM (inactive)	> 100 µM (inactive)	> 100 µM (inactive)
c1ccc2c(c1)c1c(n2CCOCCCN2CCCCC2)CCCC1	27.5 µM (inactive)	14.2	20.5 µM (inactive)	13.2 µM (inactive)	21.8 µM (inactive)	15.5 µM (inactive)	–	16 µM (inactive)	11.4 µM (inactive)	18.1 µM (inactive)	16.8 µM (inactive)	15 µM (inactive)	12.6 µM (inactive)	20.4 µM (inactive)	20.1 µM (inactive)	18.4 µM (inactive)	14.7 µM (inactive)	44.7 µM (inactive)
O=C1c2cc3c(cc2CC12Cc1ccc4c(c1C2=O)CCC4)CCCC3 (stereo not drawn)	> 100 µM (inactive)	> 100	> 100 µM (inactive)	> 100 µM (inactive)	> 100 µM (inactive)	–	> 100 µM (inactive)	> 100 µM (inactive)	> 100 µM (inactive)	76.4 µM (inactive)	> 100 µM (inactive)	–	> 100 µM (inactive)	–	> 100 µM (inactive)	> 100 µM (inactive)	> 100 µM (inactive)	> 100 µM (inactive)
CN(C)c1cccc2c1C(=O)C=CC21CCc2ccc(N(C)C)c3c(N(C)C)ccc1c23 (stereo not drawn)	15.2 µM (inactive)	–	13.6 µM (inactive)	8.34 µM (inactive)	11.2 µM (inactive)	–	12.7 µM (inactive)	–	7.38 µM (inactive)	10.3 µM (inactive)	11.9 µM (inactive)	14.8 µM (inactive)	11.9 µM (inactive)	15.1 µM (inactive)	17.4 µM (inactive)	18.1 µM (inactive)	13.4 µM (inactive)	5.26 µM (inactive)
CCCC(=O)Nc1cc2c3c(c1)CCCN3CCC2	> 10 µM (inactive)	> 10	> 10 µM (inactive)	> 10 µM (inactive)	> 10 µM (inactive)	> 10 µM (inactive)	> 10 µM (inactive)	> 10 µM (inactive)	–	> 10 µM (inactive)	> 10 µM (inactive)	> 10 µM (inactive)	–	> 10 µM (inactive)	> 10 µM (inactive)	> 10 µM (inactive)	> 10 µM (inactive)	> 10 µM (inactive)
Cn1c(=O)n2n(c1=O)C(C)(C13CC4CC(CC(C4)C1)C3)C13CC4CC(CC1C4)CC23 (stereo not drawn)	> 100 µM (inactive)	> 100	> 100 µM (inactive)	> 100 µM (inactive)	> 100 µM (inactive)	> 100 µM (inactive)	–	> 100 µM (inactive)	–	> 100 µM (inactive)	> 100 µM (inactive)	> 100 µM (inactive)	> 100 µM (inactive)	> 100 µM (inactive)	> 100 µM (inactive)	> 100 µM (inactive)	> 100 µM (inactive)	> 100 µM (inactive)
O=C1CCCC2=C1CC1=C(CCCC1=O)N2c1cccc([N+](=O)[O-])c1	> 100 µM (inactive)	> 100	–	> 100 µM (inactive)	–	> 100 µM (inactive)	> 100 µM (inactive)	> 100 µM (inactive)	67.9 µM (inactive)	–	–	> 100 µM (inactive)	> 100 µM (inactive)	–	> 100 µM (inactive)	> 100 µM (inactive)	> 100 µM (inactive)	–
C[N+]1(C)CN(c2ccccc2)C2(CCN(CCCC(=O)c3cccs3)CC2)C1=O	> 100 µM (inactive)	56.4	72.6 µM (inactive)	94.2 µM (inactive)	> 100 µM (inactive)	–	> 100 µM (inactive)	> 100 µM (inactive)	> 100 µM (inactive)	> 100 µM (inactive)	42.4 µM (inactive)	> 100 µM (inactive)	62.4 µM (inactive)	48 µM (inactive)	53.7 µM (inactive)	> 100 µM (inactive)	68.1 µM (inactive)	> 100 µM (inactive)
